Here are results for 3 compounds from publication PMC6271335, “Anti-Cholinesterase Activity of Lycopodium Alkaloids from Vietnamese Huperzia squarrosa (Forst.) Trevis” (Molecules, 2014).

As a reminder, the IC50 is the point on the concentration scale where inhibition reaches its midpoint. Low readings indicate greater potency in that assay, high ones weaker potency in that assay.

The target in this assay is AChE (acetylcholinesterase) (Electrophorus electricus, UniProt O42275). Nature of the assay: Ellman spectrophotometric assay. The assay is classed as biochemical. A general note: Ellman's reagent forms a yellow product with free thiols.
AChE (acetylcholinesterase), sequence (O42275 24-633): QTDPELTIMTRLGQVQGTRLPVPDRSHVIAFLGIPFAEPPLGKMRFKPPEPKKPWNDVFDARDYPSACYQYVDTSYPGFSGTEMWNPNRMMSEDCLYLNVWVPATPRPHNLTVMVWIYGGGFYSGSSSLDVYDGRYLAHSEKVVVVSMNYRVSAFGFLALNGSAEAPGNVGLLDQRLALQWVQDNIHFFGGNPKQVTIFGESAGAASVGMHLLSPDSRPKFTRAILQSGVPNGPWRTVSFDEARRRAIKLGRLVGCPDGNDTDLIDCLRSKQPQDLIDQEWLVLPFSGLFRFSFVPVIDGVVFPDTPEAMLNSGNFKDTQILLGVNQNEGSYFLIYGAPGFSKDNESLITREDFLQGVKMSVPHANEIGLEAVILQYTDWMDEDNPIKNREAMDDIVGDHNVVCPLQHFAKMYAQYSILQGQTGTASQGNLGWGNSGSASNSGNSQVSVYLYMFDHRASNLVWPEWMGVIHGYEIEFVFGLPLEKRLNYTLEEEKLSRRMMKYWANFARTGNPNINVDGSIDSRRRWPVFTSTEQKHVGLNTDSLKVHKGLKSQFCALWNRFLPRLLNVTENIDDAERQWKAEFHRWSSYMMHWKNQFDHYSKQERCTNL
With `COc1ccc2cc3[n+](cc2c1OC)CCc1cc2c(cc1-3)OCO2` [Berberine, reference compound], the IC50 is 0.268 µM. In turn, `CC(=O)OC1C(C)CC(=O)N2CCCC3=C(CCC2)C1CC3=O` (stereo not drawn) [compound 1, lycosquarosine A] had an IC50 of 170 µM. acetylaposerratinine [compound 2] came in with a half-maximal inhibitory concentration (IC50) of 15.2 µg/mL.
